# What was measured:
# [1] = target: T1, recombinant human CI-M6PR protein (Homo sapiens, UniProt P11717); assay: M6PR binding ELISA of matuzumab ligand-linker conjugates; conditions: conjugates of ligand linkers
# T1 construct: purchased R&D 6418-GR-050
# Protocol: Binding affinity of matuzumab conjugated to ligand-linkers for M6PR w as determined by ELISA using the following protocol: Nunc black solid bottom MaxiSorp plates were allowed to incubate overnight at 4° C. coated with 1 μg/mL of recombinant human CI-M6PR protein (R&D, 6418-GR-050) in 50 μL PBS. The next day, coating was decanted and plates were washed 3× with PBS. Wells were blocked with 350 μL of 3% BSA-PBS for 1 hour at room temperature. Blocking solution was removed and matuzumab conjugates (matuzumab-Compound I-7 (d4), matuzumab-Compound I-7 (d8), matuzumab-Compound I-8 (d4), matuzumab-Compound I-9 (d4), matuzumab-Compound I-11 (d4) and matuzumab-Compound I-12 (d4)) and their respective isotype controls (human IgG (bioxcell, BP0297) conjugated to the ligand-linker compounds being tested) were diluted in 3% BSA-PBS. 50 µL of diluted conjugates were added to the plate and allowed to incubate at room temperature for 2 hours. After incubation, solutions in plate were decanted and washed with […] of 0.05% PBS-Tween20 three times, drying the plate each wash on a clean paper towel. 50 μL of peroxidase AffiniPure Mouse Anti-Human IgG (Jackson Immuno, 209-035-088) diluted in 3% BSA-PBS to 0.2 μg/mL was added to the plate and allowed to incubate for 1 hour at room temperature in the dark. […]
# Jurkat cells = assay: Intracellular uptake of anti-IgG2a conjugates with IgG2a-Alexa488 in Jurkat cells; assay type: cell-based, human; conditions: 1 h and 24 h
# Protocol: Anti-IgG2a conjugates were generated by adding anti-IgG2a rIgG1 (Southern Biotech, Cat #1155-ol) to a solution of PBS buffer pH 7.2 containing 10% DMSO (final antibody concentration 5 mg/mL). Linker (e.g., Compound I-7) was added (at a 5-40× linker:antibody molar ratio), and the reaction was incubated at room temperature for 3 hours. Excess linker was removed by size exclusion chromatography (Superdex 200 Increase. Cat i28990944) and final DAR, was determined by LC/MS (Sciex 5600+. Acquity UPLC BEH C4 column. Cat #186004495). The resulting rIgG1 antibody conjugates were used in the experiments below.
# The anti-IgG2a conjugates were bound to IgG2a-Alexa488, as follows: equal molar ratios of anti-IgG2a and IgG2a-Alexa488 were added in tissue culture media for 30 minutes at room temperature. The resulting anti-IgG2a:IgG2a antibody-Alexa488 compositions were added to Jurkat cells (100k cells/50 ul per well, n=2), and Alexa488 fluorescence levels were measured (via Alexa488 measurement) at 1 hour and 24 hours by flow cytometry. Because Alexa488 accumulates in cells, this presents a way to measure total intracellular uptake by cells over time.
# T1 sequence (P11717 41-2491): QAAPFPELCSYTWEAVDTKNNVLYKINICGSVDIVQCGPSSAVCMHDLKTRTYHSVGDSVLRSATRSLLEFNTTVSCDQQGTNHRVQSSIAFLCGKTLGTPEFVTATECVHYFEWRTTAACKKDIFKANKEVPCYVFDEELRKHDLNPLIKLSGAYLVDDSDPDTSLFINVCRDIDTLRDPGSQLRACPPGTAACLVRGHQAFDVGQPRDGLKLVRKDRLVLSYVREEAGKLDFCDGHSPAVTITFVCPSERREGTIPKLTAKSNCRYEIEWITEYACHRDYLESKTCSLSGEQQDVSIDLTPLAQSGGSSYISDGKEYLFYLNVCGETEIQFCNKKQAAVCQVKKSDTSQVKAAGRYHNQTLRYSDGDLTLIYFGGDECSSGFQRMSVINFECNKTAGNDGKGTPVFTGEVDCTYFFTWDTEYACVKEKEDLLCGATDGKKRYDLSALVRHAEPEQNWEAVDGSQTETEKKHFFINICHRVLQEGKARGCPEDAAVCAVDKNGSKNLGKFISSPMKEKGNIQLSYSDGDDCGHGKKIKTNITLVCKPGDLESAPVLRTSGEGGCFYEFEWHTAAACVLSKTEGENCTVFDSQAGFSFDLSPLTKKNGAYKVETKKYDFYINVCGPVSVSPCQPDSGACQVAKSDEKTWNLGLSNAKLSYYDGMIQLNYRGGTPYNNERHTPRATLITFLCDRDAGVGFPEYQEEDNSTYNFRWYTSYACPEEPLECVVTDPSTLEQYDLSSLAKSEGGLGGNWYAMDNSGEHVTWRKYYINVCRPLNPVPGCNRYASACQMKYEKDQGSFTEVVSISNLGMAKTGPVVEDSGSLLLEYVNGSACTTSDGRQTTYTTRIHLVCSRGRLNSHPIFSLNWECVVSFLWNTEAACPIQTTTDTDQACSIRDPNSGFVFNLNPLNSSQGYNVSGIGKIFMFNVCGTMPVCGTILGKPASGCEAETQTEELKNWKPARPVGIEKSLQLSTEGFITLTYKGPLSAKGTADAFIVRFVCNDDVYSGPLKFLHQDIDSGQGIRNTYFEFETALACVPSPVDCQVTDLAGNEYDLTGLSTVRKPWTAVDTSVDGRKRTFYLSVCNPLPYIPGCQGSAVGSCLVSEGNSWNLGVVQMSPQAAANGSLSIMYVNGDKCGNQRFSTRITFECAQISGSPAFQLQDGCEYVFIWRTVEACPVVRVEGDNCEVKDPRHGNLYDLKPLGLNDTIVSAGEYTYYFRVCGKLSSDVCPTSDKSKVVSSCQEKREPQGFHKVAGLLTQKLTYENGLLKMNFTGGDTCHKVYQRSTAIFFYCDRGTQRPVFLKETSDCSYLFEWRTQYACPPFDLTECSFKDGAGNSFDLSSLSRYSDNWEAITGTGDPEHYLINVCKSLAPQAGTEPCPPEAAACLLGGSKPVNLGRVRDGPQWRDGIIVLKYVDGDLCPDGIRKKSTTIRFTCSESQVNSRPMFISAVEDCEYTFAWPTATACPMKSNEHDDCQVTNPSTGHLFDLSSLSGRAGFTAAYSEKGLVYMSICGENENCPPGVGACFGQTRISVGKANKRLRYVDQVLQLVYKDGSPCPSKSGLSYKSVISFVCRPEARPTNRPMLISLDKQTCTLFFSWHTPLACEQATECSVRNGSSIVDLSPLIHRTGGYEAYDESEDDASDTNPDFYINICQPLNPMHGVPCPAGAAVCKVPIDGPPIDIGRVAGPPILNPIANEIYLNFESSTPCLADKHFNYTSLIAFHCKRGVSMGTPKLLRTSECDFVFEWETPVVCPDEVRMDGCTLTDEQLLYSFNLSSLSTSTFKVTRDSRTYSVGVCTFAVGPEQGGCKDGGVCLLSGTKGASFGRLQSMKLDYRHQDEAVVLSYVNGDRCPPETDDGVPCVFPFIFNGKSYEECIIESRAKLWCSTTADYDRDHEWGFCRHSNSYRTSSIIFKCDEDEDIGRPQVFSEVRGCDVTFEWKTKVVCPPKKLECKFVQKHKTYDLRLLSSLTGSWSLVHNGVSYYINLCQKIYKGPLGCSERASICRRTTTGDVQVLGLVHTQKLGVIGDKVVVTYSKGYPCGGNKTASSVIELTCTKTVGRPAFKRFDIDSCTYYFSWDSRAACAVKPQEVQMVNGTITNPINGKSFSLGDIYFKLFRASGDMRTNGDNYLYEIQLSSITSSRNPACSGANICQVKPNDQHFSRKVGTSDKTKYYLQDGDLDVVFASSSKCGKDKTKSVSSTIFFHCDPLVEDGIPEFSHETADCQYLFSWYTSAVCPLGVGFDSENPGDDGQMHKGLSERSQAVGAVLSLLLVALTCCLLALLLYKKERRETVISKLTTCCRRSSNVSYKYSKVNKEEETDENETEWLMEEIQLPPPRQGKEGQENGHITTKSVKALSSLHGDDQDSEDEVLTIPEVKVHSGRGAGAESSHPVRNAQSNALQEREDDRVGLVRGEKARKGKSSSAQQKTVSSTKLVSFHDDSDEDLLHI
SMILES,binding affinity to M6PR relative to Compound I-7 [1],intracellular uptake (Alexa488 fluorescence) (Jurkat cells)
O=C(CCN1C(=O)C=CC1=O)NCCOCCOCCOCCn1cc(CCO[C@H]2O[C@H](CCP(=O)(O)O)[C@@H](O)[C@H](O)[C@@H]2O)nn1 [Compound I-10],weaker binding affinity to M6PR than Compound I-7,sufficiently robust uptake
O=C(CCOCCn1cc(CCO[C@H]2O[C@H](CCP(=O)(O)O)[C@@H](O)[C@H](O)[C@@H]2O)nn1)Oc1c(F)c(F)c(F)c(F)c1F [Compound I-11],weaker binding affinity to M6PR than Compound I-7,sufficiently robust uptake

# — patent publication US20230279426A1, “MODIFIED VIRAL COMPOSITIONS FOR VIRAL TRANSDUCTION” (Lycia Therapeutics, Inc., priority 2020, published 2023)
